The results in this text go back to patent EP3494999A1, “PSMA LIGANDS FOR IMAGING AND ENDORADIOTHERAPY” (Technische Universität München, priority 2017, dated 2019).

The target of data set [1] is T1, human serum albumin (HSA) (Homo sapiens, UniProt P02768).
T1 construct: purchased Daicel Chemical Industries, purchased from Chiral Technologies Europe (France)
The data set is classed as in vitro ADME. An excerpt: The Fmoc-(9-fluorenylmethoxycarbonyl-) and all other protected amino acid analogs were purchased from Bachem (Bubendorf, Switzerland) or Iris Biotech (Marktredwitz, Germany). […] The tritylchloride polystyrene (TCP) resin was obtained from PepChem (Tubingen, Germany). Chematech (Dijon, France) delivered the chelator DOTAGA-anhydride. All necessary solvents and other organic reagents were purchased from either Alfa Aesar (Karlsruhe, Germany), Sigma-Aldrich (Munich, Germany) or VWR (Darmstadt, Germany). Solid phase synthesis of the peptides was carried out by manual operation using an Intelli-Mixer syringe shaker (Neolab, Heidelberg, Germany). […] Analysis of the peptides was performed by applying different gradients of 0.1% (v/v) trifluoroacetic acid (TFA) in H2O (solvent A) and 0.1% TFA (v/v) in acetonitrile (MeCN) (solvent B) with a constant flow of 1 mL/min (specific gradients are cited in the text). […] Human serum albumin (HSA) binding was determined using a Chiralpak HSA 50 x 3 mm 5µm Analytical Column connected to a Chiralpak HSA 10 x 3 mm 5µm Guard Cartridge (Daicel Chemical Industries) purchased from Chiral Technologies Europe (France). Nonlinear regression for the HSA binding was performed using OriginPro 2016G. Both retention times tR as well as the capacity factors K' are cited in the text. […] Radioactivity was detected through connection of the outlet of the UV-photometer to a Nal(TI) well-type scintillation counter from EG&G Ortec (Munich, Germany). […] ESI-mass spectra were acquired on an expression^L CMS mass spectrometer (Advion Ltd., Harlow, UK) and on a Varian 500-MS IT mass spectrometer (Agilent Technologies, Santa Clara, USA). For the HSA binding experiment a Chiralpak HSA 50 x 3 mm 5µm Analytical Column, (Daicel Chemical Industries, LTD) connected to a Chiralpak HSA 10 x 3 mm 5µm Guard Cartridge (Daicel Chemical Industries; Chiral Technologies Europe) was used.
The mobile phase was freshly prepared for each experiment and only used for one day. The column was kept at room temperature and each run was stopped after detection of the signal to reduce the acquisition time. All substances were dissolved in a 0.5mg/ml concentration in 50% 2-Propanol and 50% 50mM pH 6.9 ammonium acetate buffer. […] All nine reference substances were injected consecutively to establish a non-linear regression with OriginPro 2016G. […] Table 1: Reference substances used for the calibration of the HSA-column.

A further data set has as its target PSMA (Homo sapiens, UniProt Q04609). As to the kind of experiment: Determination of IC50: competitive binding against ([125I]I-BA)KuE on cells. Further details: endogenous in cells; LNCaP is named only for the xenografts. The note with it: for IC50: natLu complexes, displacement of ([125I]I-BA)KuE, 60 min on ice, HBSS (1% BSA). The protocol: The corresponding ^natLu^III-complexes were prepared from a 2 mM aqueous solution of the PSMA inhibitor with a 2.5 molar excess of LuCl3 (20 mM solution), heated to 95 °C for 30 min. After cooling, the ^natLu^III-chelate formation was confirmed using HPLC and MS. […] Calculated monoisotopic mass (C67H92N11O23 Lu) = 1,593.6 found: m/z = 1,595.0 [M+H]^+, 798.2 [M+2H]^2+. [^natLu]DOTAGA-(4-NH2)f-y-nal-k-KuE ([^natLu]PSMA-5): HPLC (10 to 60% B in 15 min.): tR = 9.0 min K' = 3.5. Calculated monoisotopic mass (C76H102N13O24 Lu) = 1,755.7 found: m/z = 1,756.4 [M+H]^+, 879.0 [M+2H]^2+. [^natLu]DOTAGA-(4-NH2)F-y-nal-k-KuE ([^natLu]PSMA-6): HPLC (10 to 60% B in 15 min.): tR = 9.1 min K' = 3.6. Calculated monoisotopic mass (C76H102N13O24 Lu) = 1,755.7 found: m/z = 1,756.6 [M+H]^+, 878.8 [M+2H]^2+. [^natLu]DOTAGA-y-nal-k(Suc-(HO-δ-orn-γ-EuE))-OH ([^natLu]PSMA-7): HPLC (10 to 60 % B in 15 min): tR = 7.8 min K' = 2.9. Calculated monoisotopic mass (C67H89N12O26 Lu): 1,652.5 found: m/z = 1,653.9 [M+H]^+. [^natLu]DOTAGA-(4-NH2)f-y-nal-k(Suc-(HO-δ-orn-γ-EuE))-OH ([^natLu]PSMA-8): HPLC (10 to 60 % B in 15 min): tR = 7.3 min K' = 2.7. Calculated monoisotopic mass (C67H99N14O27Lu): 1,814.6 found: m/z = 1,815.9 [M+H]^+, 908.3 [M+2H]^2+. [^natLu]DOTAGA-(4-NH2)F-y-nal-k(Suc-(HO-δ-orn-γ-EuE))-OH ([^natLu]PSMA-9): HPLC (10 to 60 % B in 15 min): tR = 7.2 min K' = 2.6. Calculated monoisotopic mass (C67H99N14O27Lu): 1,814.6 found: m/z = 1,815.6 [M+H]^+, 908.3 [M+2H]^2+. [^natLu]DOTAGA-y-nal-k(Glut-(l-f)-KuE) ([^natLu]PSMA-10): HPLC (25 to 55% B in 15 min): tR = 10.6 min K' = 4.9. Calculated monoisotopic mass (C73H94IN12O24Lu): 1,825.5 found: m/z = 1,826.5 [M+H]^+, 913.8 [M+2H]^2+. [^natLu]DOTAGA-(4-NH2)f-y-nal-k(Glut-(l-f)-KuE) ([^natLu]PSMA-11): HPLC (10 to 60% B in 20 min): tR = 9.7 min K' = 3.9. Calculated monoisotopic mass (C82H104IN14O25Lu): 1,986.6 found: m/z = 1,987.5 [M+H]^+, 994.3 [M+2H]^2+.
The reaction solution was incubated for 10 min at RT, loaded on a cartridge and rinsed with 10 mL water (C18 Sep Pak Plus cartridge, preconditioned with 10 mL MeOH and 10 mL water). After elution with 2.0 mL of a 1:1 mix (v/v) of EtOH/MeCN, the radioactive solution was evaporated to dryness under a gentle nitrogen stream and treated with 200 µL TFA for 30 min with subsequent evaporation of TFA.
After removal of the culture medium, the cells were treated once with 500 µL of HBSS (Hank's balanced salt solution, Biochrom, Berlin, Germany, with addition of 1% bovine serum albumin (BSA)) and left 15 min on ice for equilibration in 200 µL HBSS (1% BSA). […] All experiments were performed at least three times for each concentration. After 60 min incubation on ice, the experiment was terminated by removal of the medium and consecutive rinsing with 200 µL of HBSS. The media of both steps were combined in one fraction and represent the amount of free radioligand. Afterwards, the cells were lysed with 250 µL of 1.0 M NaOH and united with the 200 µL HBSS of the following wash step. Quantification of bound and free radioligand was accomplished in a γ-counter.

SMILES strings stand for the structures. Square brackets hold non-standard residues; d marks the D form. Peptide text beside a SMILES is read from it. * marks the point of attachment. X1 = O=C(O)CC[C@H](NC(=O)N[C@@H](CCCCNC(=O)CCCCCCC(=O)*)C(=O)O)C(=O)O; DOTAGA = O=C(O)CN1CCN(CC(=O)O)CCN(C(CCC(=O)*)C(=O)O)CCN(CC(=O)O)CC1; dPhe(4-NH2) = Nc1ccc(C[C@@H](N)C(=O)O)cc1; dTyr(3-I) = N[C@H](Cc1ccc(O)c(I)c1)C(=O)O; Phe(4-NH2) = Nc1ccc(C[C@H](N)C(=O)O)cc1; d2Nal = N[C@H](Cc1ccc2ccccc2c1)C(=O)O

T1 sequence (P02768 25-609): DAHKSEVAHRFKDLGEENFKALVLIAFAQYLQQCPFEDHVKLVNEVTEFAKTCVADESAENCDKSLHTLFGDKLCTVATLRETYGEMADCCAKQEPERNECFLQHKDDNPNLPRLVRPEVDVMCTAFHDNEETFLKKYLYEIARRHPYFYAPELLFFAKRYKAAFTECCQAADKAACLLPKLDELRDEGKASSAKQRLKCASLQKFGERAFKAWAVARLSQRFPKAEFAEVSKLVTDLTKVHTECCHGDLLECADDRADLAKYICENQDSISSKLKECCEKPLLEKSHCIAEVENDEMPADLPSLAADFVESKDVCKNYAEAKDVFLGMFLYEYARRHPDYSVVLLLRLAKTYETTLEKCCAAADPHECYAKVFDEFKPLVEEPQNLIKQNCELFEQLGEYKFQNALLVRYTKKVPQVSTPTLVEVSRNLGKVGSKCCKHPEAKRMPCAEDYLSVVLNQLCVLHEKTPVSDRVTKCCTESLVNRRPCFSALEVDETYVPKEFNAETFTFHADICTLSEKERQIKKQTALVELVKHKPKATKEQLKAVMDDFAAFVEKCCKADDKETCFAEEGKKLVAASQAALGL
Sequence of PSMA (Q04609 whole entry): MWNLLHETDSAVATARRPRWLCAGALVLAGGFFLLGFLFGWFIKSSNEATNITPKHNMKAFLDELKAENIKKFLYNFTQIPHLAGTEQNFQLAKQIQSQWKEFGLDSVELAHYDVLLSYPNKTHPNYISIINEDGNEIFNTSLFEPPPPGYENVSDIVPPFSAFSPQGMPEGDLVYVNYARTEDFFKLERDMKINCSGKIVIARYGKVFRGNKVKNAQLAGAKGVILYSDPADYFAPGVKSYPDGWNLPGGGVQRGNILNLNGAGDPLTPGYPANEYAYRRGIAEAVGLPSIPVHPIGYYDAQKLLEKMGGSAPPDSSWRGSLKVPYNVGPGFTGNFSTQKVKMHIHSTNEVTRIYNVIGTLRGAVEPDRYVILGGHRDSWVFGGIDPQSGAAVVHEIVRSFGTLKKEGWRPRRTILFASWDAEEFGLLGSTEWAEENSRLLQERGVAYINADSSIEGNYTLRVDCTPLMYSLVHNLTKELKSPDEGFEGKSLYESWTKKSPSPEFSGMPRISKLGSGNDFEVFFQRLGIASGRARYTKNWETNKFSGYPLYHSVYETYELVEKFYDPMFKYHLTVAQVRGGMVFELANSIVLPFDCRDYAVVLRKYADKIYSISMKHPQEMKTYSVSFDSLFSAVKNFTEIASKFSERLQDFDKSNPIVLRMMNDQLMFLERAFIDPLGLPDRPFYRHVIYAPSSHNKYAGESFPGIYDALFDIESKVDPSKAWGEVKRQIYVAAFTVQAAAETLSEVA

Consider `Nc1ccc(C[C@@H](NC(=O)CCC(C(=O)O)N2CCN(CC(=O)O)CCN(CC(=O)O)CCN(CC(=O)O)CC2)C(=O)N[C@H](Cc2ccc(O)c(I)c2)C(=O)N[C@H](Cc2ccccc2)C(=O)N[C@H](CCCCNC(=O)CCCCCCC(=O)NCCCC[C@H](NC(=O)N[C@@H](CCC(=O)O)C(=O)O)C(=O)O)C(=O)O)cc1` (stereo partly drawn) [[^nat/177Lu]PSMA-2, DOTAGA-(4-NH2)f-(l-y)-f-k-KuE, metal not drawn] ({DOTAGA}-[dPhe(4-NH2)][dTyr(3-I)][dF][dK](X1)-OH), for which, in data set [1], the “HSA [%]” value stood at 82.5%. This molecule displayed an IC50 on PSMA of 2.3 ± 0.6 nM.
Regarding `Nc1ccc(C[C@H](NC(=O)CCC(C(=O)O)N2CCN(CC(=O)O)CCN(CC(=O)O)CCN(CC(=O)O)CC2)C(=O)N[C@H](Cc2ccc(O)c(I)c2)C(=O)N[C@H](Cc2ccccc2)C(=O)N[C@H](CCCCNC(=O)CCCCCCC(=O)NCCCC[C@H](NC(=O)N[C@@H](CCC(=O)O)C(=O)O)C(=O)O)C(=O)O)cc1` (stereo partly drawn) [[^nat/177Lu]PSMA-3, DOTAGA-(4-NH2)F-(l-y)-f-k-KuE, metal not drawn] ({DOTAGA}-[Phe(4-NH2)][dTyr(3-I)][dF][dK](X1)-OH), the “HSA [%]” value in data set [1] turned out to be 91.9%. This molecule also returned an IC50 on PSMA of 2.8 ± 0.3 nM.
On to `O=C(O)CC[C@H](NC(=O)N[C@@H](CCCCNC(=O)CCCCCCC(=O)NCCCC[C@@H](NC(=O)[C@@H](Cc1ccc2ccccc2c1)NC(=O)[C@@H](Cc1ccc(O)cc1)NC(=O)CCC(C(=O)O)N1CCN(CC(=O)O)CCN(CC(=O)O)CCN(CC(=O)O)CC1)C(=O)O)C(=O)O)C(=O)O` (stereo partly drawn) [[^nat/177Lu]PSMA-4, DOTAGA-y-nal-k-KuE, metal not drawn, reference compound], for which the “HSA [%]” value in data set [1] came to 82.6%. This molecule also registered an IC50 at PSMA of 2.1 ± 0.8 nM.
Turning to `Nc1ccc(C[C@H](NC(=O)CCC(C(=O)O)N2CCN(CC(=O)O)CCN(CC(=O)O)CCN(CC(=O)O)CC2)C(=O)N[C@H](Cc2ccc(O)cc2)C(=O)N[C@H](Cc2ccc3ccccc3c2)C(=O)N[C@H](CCCCNC(=O)CCCCCCC(=O)NCCCC[C@H](NC(=O)N[C@@H](CCC(=O)O)C(=O)O)C(=O)O)C(=O)O)cc1` (stereo partly drawn) [[^nat/177Lu]PSMA-6, DOTAGA-(4-NH2)F-y-nal-k-KuE, metal not drawn] ({DOTAGA}-[Phe(4-NH2)][dY][d2Nal][dK](X1)-OH), the “HSA [%]” value in data set [1] came out at 83.17%. For the same molecule, the IC50 at PSMA came to 1.1 ± 0.1 nM. Also, on PSMA (relative to [Lu]PSMA DKFZ 617), the “affinity, fold higher than [Lu]PSMA DKFZ 617” value is on record as “more than 3 fold”. Further, at PSMA (relative to [Lu]PSMA I&T), the “affinity, fold higher than [Lu]PSMA I&T” value is “around 7 fold”.
Consider `O=C(O)CC[C@H](NC(=O)N[C@@H](CCCCNC(=O)[C@@H](Cc1ccc(I)cc1)NC(=O)CCCC(=O)NCCCC[C@@H](NC(=O)[C@@H](Cc1ccc2ccccc2c1)NC(=O)[C@@H](Cc1ccc(O)cc1)NC(=O)CCC(C(=O)O)N1CCN(CC(=O)O)CCN(CC(=O)O)CCN(CC(=O)O)CC1)C(=O)O)C(=O)O)C(=O)O` (stereo partly drawn) [[^nat/177Lu]PSMA-10, DOTAGA-y-nal-k(Glut-(l-f)-KuE), metal not drawn, reference compound], for which the “HSA [%]” value in data set [1] was 96.61%. Further, the IC50 on PSMA came out at 6.1 ± 1.6 nM.
